# Patent publication US6069232A, “Polyfluoroalkyl tryptophan tripeptide thrombin inhibitors” (Hoechst Marion Roussel, Inc., priority 1996, dated 2000)
# Key:
# Thrombin = biological target: T1, Thrombin (Homo sapiens, UniProt P00734); assay: Thrombin inhibition, spectrophotometric assay (p-nitroaniline liberation); format: biochemical; conditions: thrombin from human plasma; substrate Sarcosyl-Proline-Arginine-p-nitroanilide; 0.1M Tris pH 7.4; 30° C.
# T1 construct: Thrombin is obtained from human plasma; purchased Sigma Chemical Co; host or cells: human plasma
# Description: Chem., 329, p. 278 (1962), in which the liberation of p-nitroaniline is determined by measuring the increase in absorbance at 405 nm (ε=10800M^-1 cm^-1). Thrombin is obtained from human plasma, available from Sigma Chemical Co. wherein the activity is expressed in NIH units. One vial contains 290 units (specific activity=3000 units per mg of protein) as a lyophilized powder which is reconstituted with 1 mL of water. The substrate is the chromophoric peptide, Sarcosyl-Proline-Arginine-p-nitroanilide (Km =0.9 mM), the buffer is 0.1M Tris, pH 7.4 (final volume 1 mL) and the assay is carried out at a temperature of about 30° C. with 0.029 NIH units of enzyme required per assay. Kinetic characterization of immediate inhibitors is by means of the Dixon plot, whereas the characterization of slow- and/or tight-binding inhibitors uses data analysis techniques reviewed by Williams and Morrison. Kinetic characterization of time dependent inhibitors is by means of a Kitz & Wilson plot, Kitz R. and Wilson I. B., J. Biol. Chem., 237, 3245-3249 (1962).
# Trypsin = biological target: T2, Trypsin (Sus scrofa, UniProt P00761); assay: Trypsin inhibition, spectrophotometric assay (p-nitroaniline liberation); format: biochemical; conditions: trypsin from porcine pancreas; substrate Benzoyl-Arginine-p-nitroanilide; 0.05M Tris, 0.05M CaCl2, pH 7.8; 30° C.
# T2 construct: Trypsin is obtained from porcine pancreas; purchased Sigma Chemical Co; host or cells: porcine pancreas
# T2 sequence (P00761 9-231): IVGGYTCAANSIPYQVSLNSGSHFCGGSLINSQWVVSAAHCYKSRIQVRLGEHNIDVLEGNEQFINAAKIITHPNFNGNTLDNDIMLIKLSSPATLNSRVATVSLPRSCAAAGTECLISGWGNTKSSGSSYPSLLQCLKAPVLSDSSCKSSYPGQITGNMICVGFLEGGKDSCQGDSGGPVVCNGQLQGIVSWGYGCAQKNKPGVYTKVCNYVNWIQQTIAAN
# Description: Chem., 329, p. 278 (1962), immediately described above. Trypsin is obtained from porcine pancreas, available from Sigma Chemical Co. wherein the activity is expressed in Sigma units. The specific activity of the trypsin source is 15900 Sigma units per mg of protein where one unit is defined as the amount of enzyme that gives an increase in absorbance at 253 nm of 0.001 per min as the result of the hydrolysis of Benzoyl-Arginine-Ethylester, at pH 7.6 and 25° C. The substrate is the peptide Benzoyl-Arginine-p-nitroanilide (KM =[…]), the buffer is 0.05M Tris, 0.05M CaCl2, pH 7.8 (final volume 1 mL) and the assay is carried out at a temperature of 30° C. with 8 Sigma units of enzyme required per assay. Kinetic characterization of immediate inhibitors is by means of the Dixon plot, whereas the characterization of slow- and/or tight-binding inhibitors uses data analysis techniques reviewed by Williams and Morrison. Kinetic characterization of time dependent inhibitors is by means of a Kitz & Wilson plot.
# clotting time (aPTT) = assay: Coagulation assay: activated partial thromboplastin time (aPTT), concentration doubling the clotting time; design: species or system rat; conditions: calculated by simple linear regression
# Description: Male Sprague-Dawley rats (200-450 gm) purchased from Harlan Sprague Dawley, Inc., (Indianapolis, Ind. 46229) were used in these studies.
# Activated partial thromboplastin time (aPTT) determinations are carried out using the reagents and methods of Dade Diagnostics, Inc. (Aguada, Puerto Rico 00602). All clotting times were measured semiautomatically using a MLA-Electra 750, MLA, Inc. (Pleasantville, N.Y. 10570). The concentration required for doubling the clotting time (ID2) was calculated using simple linear regression.
# aPTT in rat plasma = assay: In vivo measurement of aPTT in rat plasma after injection; conditions: n = 2
# Text: Activated partial thromboplastin time (aPTT) measurements were made in rat plasma at various times after injecting the animals with TFA·HNMe-D-Phe-L-Pro-D,L-Trp--CF2 CF3. Male Sprague-Dawley rats (200-450 g) purchased from Harlan Sprague Dawley, Inc., (Indianapolis, Ind. 46229) are used in these studies. […]
structure (smiles),measurement,setting,value
"CN[C@H](Cc1ccccc1)C(=O)N1CCC[C@H]1C(=O)NC(Cc1c[nH]c2ccccc12)C(=O)C(F)(F)C(F)(F)F.O=C(O)C(F)(F)F (stereo partly drawn) [TFA.HNMe-D-Phe-L-Pro-D,L-Trp-CF2 CF3, L-Prolinamide, N-methyl-D-phenylalanyl-N-[3,3,4,4,4-pentafluoro-1-(1H-indol-3-ylmethyl)-2-oxobutyl]-, mono(trifluoroacetate)]",Ki,Thrombin,0.45 µM
same,Ki,Trypsin,~100 µM
same,ID2 (concentration required for doubling the clotting time),clotting time (aPTT),44.9 µM
same,aPTT,"aPTT in rat plasma; 5 mg/kg i.v., 0 min. after dosing",21.2 s
same,aPTT,"aPTT in rat plasma; 5 mg/kg i.v., 5 min. after dosing",19.0 s
same,aPTT,"aPTT in rat plasma; 5 mg/kg i.v., 15 min. after dosing",22.7 s
same,aPTT,"aPTT in rat plasma; 5 mg/kg i.v., 30 min. after dosing",18.6 s
same,aPTT,"aPTT in rat plasma; 5 mg/kg i.v., 60 min. after dosing",17.6 s
same,aPTT,"aPTT in rat plasma; 10 mg/kg i.v., 0 min. after dosing",18.8 s
same,aPTT,"aPTT in rat plasma; 10 mg/kg i.v., 5 min. after dosing",17.4 s
same,aPTT,"aPTT in rat plasma; 10 mg/kg i.v., 15 min. after dosing",18.0 s
same,aPTT,"aPTT in rat plasma; 10 mg/kg i.v., 30 min. after dosing",15.7 s
same,aPTT,"aPTT in rat plasma; 10 mg/kg i.v., 60 min. after dosing",12.6 s
same,aPTT,"aPTT in rat plasma; 30 mg/kg i.p., 0 min. after dosing",19.2 s
same,aPTT,"aPTT in rat plasma; 30 mg/kg i.p., 5 min. after dosing",20.8 s
same,aPTT,"aPTT in rat plasma; 30 mg/kg i.p., 15 min. after dosing",19.2 s
same,aPTT,"aPTT in rat plasma; 30 mg/kg i.p., 30 min. after dosing",19.4 s
same,aPTT,"aPTT in rat plasma; 30 mg/kg i.p., 60 min. after dosing",18.7 s
